These results are taken from PubChem BioAssay (NCI).

Where “and” joins values, the source holds several entries; their conditions need not be identical. Equal entries are not always repeated.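 Method: 48-hour compound exposure of cells in 96-well plates, five concentrations, linear interpolation of endpoints. GI50: concentration for 50% inhibition of growth. At the TGI there is no net growth.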 Bounds are passed on as bounds.

The first experiment deals with HOP-62 NSCLC. In words: NCI anticancer screen, dose series, 48 h.
`O=c1[nH]c2ccccc2cc1C(Cl)=C(Cl)Cl` came in with a TGI above 100 µM.
Compound `O=[N+]([O-])[C@@H]1C2C=CC(C2)[C@H]1Cl` (some centres not stated) displayed a TGI above 100 µM.
On the same count and under the same terms, to `COC(=O)C(C#N)=C1c2ccccc2Oc2ccccc21` belongs above 100 µM; to `N#CC1(c2nc3ccccc3o2)C(=O)C(=O)N(C2C3CC4CC(C3)CC2C4)C(=O)C1=O` (configuration not stated), above 100 µM; to `O=C1NC(c2ccc(O)cc2)C2CCC1C2` (configuration not stated), above 100 µM.
Same read-out and setting: to `CCOC(=O)C1(CC)CCCCC(=O)N1` (configuration not stated) belongs above 100 µM; to `C=CC1=CSNN1`, above 100 µM.
In the case of `NC(N)=N/N=C(/c1ccccc1)c1ccc(F)cc1`, the GI50 was 850 nM and the TGI is 13.1 µM.
Compound `O=C(C#Cc1c[nH]c(=O)[nH]c1=O)c1ccccc1Cl` displayed a TGI above 100 µM.
As for `CC(=O)OC1=C2CC3(C)OC(=O)CC(C)(C)C3=CC=C2C=C(C(C)C)C1=O` (configuration not stated), the TGI amounted to 19.9 µM.
On the same count and under the same terms, to `CCCCCCCCCCCCCCCC(=O)NCC(COP(=O)([O-])OCC[N+](C)(C)C)OCC` (configuration not stated) belongs 20.1 µM; to `O=C1CCCN(c2ccccc2)N1`, above 100 µM; to `CN(C)/C(=N/C(=S)Nc1ccccc1)SCc1ccccc1`, above 100 µM.
Turning to `CCOC(=O)CC1=Nc2ccccc2SC1`, the TGI is above 100 µM.
Still for that read-out and setting: to `C=CCSC[C@H](NC(=O)COc1ccccc1)C(=O)NC(C(=O)OCc1ccc([N+](=O)[O-])cc1)=C(C)C` belongs above 100 µM.

In another experiment the test system is HOP-92 NSCLC. In words: NCI anticancer screen, dose series, 48 h.
As for `CC(C)(C)OC(=O)n1cc(CNC(=S)Nc2ccccc2)c2ccccc21`, the GI50 was 8940 nM and the TGI came to 25.7 µM.
In the same order, the values of `O=C(Nc1cccc(-n2ccc3c(NC(=O)c4ccccc4)nccc32)c1)c1cccc(C(F)(F)F)c1` are 281 nM and 8.07 µM.
In the same order, the values of `C=C1C(O)C2CCC(C)(C)C(=O)C2=C(CC(C)C)C12CC2` (configuration not stated) are 15000 nM and 70.3 µM.
Consider `O=C1/C(=C/c2ccc(F)cc2)CCOc2ccc([N+](=O)[O-])cc21`, for which the GI50 was 4450 nM and the TGI was 40.2 µM.
Compound `C#CCNC(=O)NC(CCCNC(=O)OCc1ccccc1)C(=O)OCc1ccccc1` (configuration not stated) registered a TGI above 100 µM.
On the same count and under the same terms, to `COc1ccc2cc1Oc1ccc(cc1)C[C@H]1c3cc(c(OC)cc3CCN1C)Oc1c(OC)c(OC)cc3c1[C@H](C2)N(C)CC3` belongs 11 µM and 26 µM and > 100 µM.
`O=c1[nH]c2ccccc2cc1C(Cl)=C(Cl)Cl`: the TGI was above 100 µM.
In the case of `O=[N+]([O-])[C@@H]1C2C=CC(C2)[C@H]1Cl` (some centres not stated), the TGI is above 100 µM.
`COC(=O)C(C#N)=C1c2ccccc2Oc2ccccc21` registered a TGI of 87.6 µM.
Compound `N#CC1(c2nc3ccccc3o2)C(=O)C(=O)N(C2C3CC4CC(C3)CC2C4)C(=O)C1=O` (configuration not stated) gave a TGI above 100 µM.
As for `O=C1NC(c2ccc(O)cc2)C2CCC1C2` (configuration not stated), the TGI was above 100 µM.
On the same count and under the same terms, to `CCOC(=O)C1(CC)CCCCC(=O)N1` (configuration not stated) belongs above 100 µM; to `C=CC1=CSNN1`, above 100 µM.
As for `NC(N)=N/N=C(/c1ccccc1)c1ccc(F)cc1`, the GI50 is 984 nM and the TGI worked out at 31.4 µM.
Take `O=C(C#Cc1c[nH]c(=O)[nH]c1=O)c1ccccc1Cl`: the TGI was determined as 35.4 µM.
`CC(=O)OC1=C2CC3(C)OC(=O)CC(C)(C)C3=CC=C2C=C(C(C)C)C1=O` (configuration not stated) had a TGI of 0.499 µM.
Still for that read-out and setting: to `CCCCCCCCCCCCCCCC(=O)NCC(COP(=O)([O-])OCC[N+](C)(C)C)OCC` (configuration not stated) belongs 15.6 µM.
Take `CCC(C)C1NC(=O)c2nc(oc2-c2ccccc2)-c2csc(n2)-c2csc(n2)-c2nc(oc2C)-c2coc(n2)CNC(=O)C(C(C)CC)NC1=O` (configuration not stated): the GI50 was 19.8 nM and the TGI is 0.134 µM.
`CCOC(=O)CC1=Nc2ccccc2SC1` yielded a TGI above 100 µM.

A further experiment concerns OVCAR-3 ovarian. The experiment in a line: NCI anticancer screen, dose series, 48 h.
In the case of `CCOc1ccc(NC(=O)CC2Sc3ccccc3NC2=O)cc1` (configuration not stated), the TGI was above 100 µM.
Still for that read-out and setting: to `Cn1cc(NC(=O)c2cc(NC(=O)CCCCCCCCCCC(=O)Nc3cc(C(=O)Nc4cc(C(=O)NCCC(=N)N)n(C)c4)n(C)c3)cn2C)cc1C(=O)NCCC(=N)N` belongs above 100 µM.
With `CC(C)(C)OC(=O)n1cc(CNC(=S)Nc2ccccc2)c2ccccc21`, the GI50 was 11.7 µM and the TGI is 27.7 µM.
In the same order, the values of `O=C(Nc1cccc(-n2ccc3c(NC(=O)c4ccccc4)nccc32)c1)c1cccc(C(F)(F)F)c1` are 0.0205 µM and 0.0463 µM.
In the same order, the values of `C1COCCN1.C1COCCN1.N.N.[Cl-].[Pt+2]` are above 100 µM and above 100 µM.
Take `C=C1C(O)C2CCC(C)(C)C(=O)C2=C(CC(C)C)C12CC2` (configuration not stated): the GI50 was 34.7 µM and the TGI was above 100 µM.
Consider `O=C1/C(=C/c2ccc(F)cc2)CCOc2ccc([N+](=O)[O-])cc21`, for which the GI50 was 2.33 µM and the TGI was found to be 5.61 µM.
As to `Cc1ccccc1C(C#N)C(=O)C(=O)Nc1nc([N+](=O)[O-])cs1` (configuration not stated), the TGI is above 100 µM.
Still for that read-out and setting: to `COC(=O)C(c1[nH]nc2ccccc12)C(C(=O)OC)c1[nH]nc2ccccc12` (configuration not stated) belongs above 100 µM; to `C#CCNC(=O)NC(CCCNC(=O)OCc1ccccc1)C(=O)OCc1ccccc1` (configuration not stated), above 100 µM.
Regarding `COc1ccc2cc1Oc1ccc(cc1)C[C@H]1c3cc(c(OC)cc3CCN1C)Oc1c(OC)c(OC)cc3c1[C@H](C2)N(C)CC3`, the GI50 is 11.8 µM; the TGI was 15.7 µM and 28.7 µM.
Compound `O=c1[nH]c2ccccc2cc1C(Cl)=C(Cl)Cl` gave a TGI above 100 µM.
On to `O=[N+]([O-])[C@@H]1C2C=CC(C2)[C@H]1Cl` (some centres not stated), for which the TGI is above 100 µM.
Regarding `COC(=O)C(C#N)=C1c2ccccc2Oc2ccccc21`, the TGI was found to be 73.1 µM.
For `N#CC1(c2nc3ccccc3o2)C(=O)C(=O)N(C2C3CC4CC(C3)CC2C4)C(=O)C1=O` (configuration not stated), the TGI was above 100 µM.
On the same count and under the same terms, to `O=C1NC(c2ccc(O)cc2)C2CCC1C2` (configuration not stated) belongs above 100 µM.
`CCOC(=O)C1(CC)CCCCC(=O)N1` (configuration not stated): the TGI was above 100 µM.
Still for that read-out and setting: to `C=CC1=CSNN1` belongs above 100 µM.
Take `NC(N)=N/N=C(/c1ccccc1)c1ccc(F)cc1`: the GI50 was 0.227 µM and the TGI is 0.621 µM.
